According to the supplement of paper PMC8967900:

How the values were obtained:
Assay in all cases: selective drug sensitivity score (sDSS, relative to normal bone marrow) (sDSS (score)); higher = more potent and effective on the cell line relative to normal bone marrow cells
Conditions in all cases: 72 h
[1] = system: 380
[2] = system: 697
[3] = system: ALL-SIL
[4] = system: COG-LL-319h
[5] = system: COG-LL-332h
[6] = system: COG-LL-394h
[7] = system: COG-LL-402h
[8] = system: HAL-01
[9] = system: JURKAT
[10] = system: KASUMI-10
[11] = system: KASUMI-2
[12] = system: MOLT-16
[13] = system: MOLT-4
[14] = system: NALM-6
[15] = system: P30-OHKUBO
[16] = system: PEER
[17] = system: RCH-ACV
[18] = system: REH
[19] = system: SUP-B15
[20] = system: TMD5
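Note: ALL cell lines in 384-well plates, five doses spanning 10,000-fold, each plate scaled between vehicle and 100 µmol/L benzalkonium chloride controls, sDSS an adapted area-under-curve metric.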

Compound	selective drug sensitivity score [1]	selective drug sensitivity score [2]	selective drug sensitivity score [3]	selective drug sensitivity score [4]	selective drug sensitivity score [5]	selective drug sensitivity score [6]	selective drug sensitivity score [7]	selective drug sensitivity score [8]	selective drug sensitivity score [9]	selective drug sensitivity score [10]	selective drug sensitivity score [11]	selective drug sensitivity score [12]	selective drug sensitivity score [13]	selective drug sensitivity score [14]	selective drug sensitivity score [15]	selective drug sensitivity score [16]	selective drug sensitivity score [17]	selective drug sensitivity score [18]	selective drug sensitivity score [19]	selective drug sensitivity score [20]
CCN(CC)C(=S)SSC(=S)N(CC)CC [Disulfiram(+CuCl2)] (top concentration 50000 nM)	1.58	-1.02	-2.12	18.7	-0.52	-1.02	-0.32	16.3	-2.12	-1.52	5.18	13.9	-2.12	-2.12	0.78	-2.12	5.38	-0.32	10.7	-2.12
Nc1ncn([C@H]2C[C@H](O)[C@@H](CO)O2)c(=O)n1 [Decitabine] (top concentration 10000 nM)	9.14	17.5	-3.06	10.7	4.34	-6.06	3.34	-1.76	4.04	-3.06	-2.26	5.94	-0.96	-3.06	4.64	2.94	10.1	3.94	16.5	-5.56
COc1cccc2c1C(=O)c1c(O)c3c(c(O)c1C2=O)C[C@@](O)(C(C)=O)C[C@@H]3O[C@H]1C[C@H](N)[C@H](O)[C@H](C)O1 [Daunorubicin] (top concentration 1000 nM)	13.7	9.06	1.26	16.4	12.1	8.66	15.8	-2.24	2.96	9.06	10.8	13.5	7.86	6.36	6.46	-3.84	12.6	6.16	11.9	1.86
CCc1c2c(nc3ccc(O)cc13)-c1cc3c(c(=O)n1C2)COC(=O)[C@]3(O)CC [SN-38] (top concentration 10000 nM)	27	22.7	27.3	26.7	27.6	13.8	21.1	21.8	22.7	18.9	18.8	28.2	28.2	22.1	24.6	12.8	27.6	27.2	26.9	18.3
Oc1nc(-c2ccc(C(F)(F)F)cc2)nc2c1CSCC2 [XAV939] (top concentration 10000 nM)	1.96	-0.14	-0.14	-0.14	-0.14	0.36	0.16	-0.14	-0.14	-0.14	1.46	-0.14	-0.14	-0.14	-0.14	0.96	0.06	-0.04	-0.14	-0.14
CS(=O)(=O)N1CCN(Cc2cc3nc(-c4cccc5[nH]ncc45)nc(N4CCOCC4)c3s2)CC1 [Pictilisib] (top concentration 10000 nM)	16.4	7.36	4.56	5.56	0.46	-0.74	12.9	14.4	0.36	3.96	8.46	4.16	9.36	12.9	13	-2.24	26.2	10.5	0.16	2.56
CC(C)(C#N)c1cc(Cn2cncn2)cc(C(C)(C)C#N)c1 [Anastrozole] (top concentration 10000 nM)	0	0	0	0	0	0	0	0	0	0	0	0	0	0	0	0	0	0	0	0.6
Cc1sc2c(c1C)C(c1ccc(Cl)cc1)=N[C@@H](CC(=O)Nc1ccc(O)cc1)c1nnc(C)n1-2 [Birabresib] (top concentration 10000 nM)	-9.68	10.6	0.02	13.5	-4.28	-0.08	7.12	-0.78	-1.98	7.02	-9.68	7.92	-4.68	3.72	7.22	-0.08	12	-3.18	3.42	-9.18
CO[C@H]1C[C@@H]2CC[C@@H](C)[C@@](O)(O2)C(=O)C(=O)N2CCCC[C@H]2C(=O)O[C@H]([C@H](C)C[C@@H]2CC[C@@H](OP(C)(C)=O)[C@H](OC)C2)CC(=O)[C@H](C)/C=C(\C)[C@@H](O)[C@@H](OC)C(=O)[C@H](C)C[C@H](C)/C=C/C=C/C=C/1C [Ridaforolimus] (top concentration 100 nM)	24.5	12.5	3.06	4.76	7.36	-4.84	4.66	-4.34	0.26	-4.84	8.66	10.6	-2.04	-4.84	4.36	7.26	18.9	6.96	8.96	-4.84
Nc1ccn([C@@H]2O[C@H](CO)[C@@H](O)[C@@H]2O)c(=O)n1 [Cytarabine] (top concentration 10000 nM)	22.2	27.7	15.1	18.8	25.5	-10	26.9	21.8	17.9	1.6	16.6	22.5	19	25.2	26.2	12.2	28.1	21.8	27.7	-10
Cc1cc(OCc2nnc(SC3CCCC3)n2-c2cccnc2)ccc1-c1ccc(S(C)(=O)=O)cc1 [NMS-873] (top concentration 10000 nM)	-4.24	14.1	8.96	10.3	5.86	14.6	2.56	1.06	26.5	-0.14	4.26	17.6	17.4	7.36	4.66	22.9	11.7	12	10.6	2.26
CC(C)Oc1ccc(C(=O)N[C@H](CNC(=O)CN(C)C)Cc2ccc(-c3cn4cccc([C@H](C)O)c4n3)cc2)cc1Cl (top concentration 10000 nM)	10.7	19.9	12.8	14.3	16.5	-0.72	10.6	1.98	13.6	6.88	6.38	20.1	18.2	7.68	12.8	19.9	18	12.1	14.8	5.18
Nc1nc(F)nc2c1ncn2[C@@H]1O[C@H](CO)[C@@H](O)[C@@H]1O [Fludarabine] (top concentration 10000 nM)	6.9	7.3	3	8.4	0.6	-10.6	8	4	-5.5	-0.8	5.3	2.6	-1.9	4.6	7.7	-9.3	5.9	-1.3	9.4	-10.6
O[C@H]1CC[C@H](Nc2ncc3nc(Nc4c(F)cc(F)cc4F)n([C@H]4CCOC4)c3n2)CC1 [Tanzisertib] (top concentration 10000 nM)	0	0	0	0	0	0	0	0	0	0	0	0	0	0	0	0	0	0	0	0
CO[C@H]1C[C@@H]2CC[C@@H](C)[C@@](O)(O2)C(=O)C(=O)N2CCCC[C@H]2C(=O)O[C@H]([C@H](C)C[C@@H]2CC[C@@H](OC(=O)C(C)(CO)CO)[C@H](OC)C2)CC(=O)[C@H](C)/C=C(\C)[C@@H](O)[C@@H](OC)C(=O)[C@H](C)C[C@H](C)/C=C/C=C/C=C/1C [Temsirolimus] (top concentration 100 nM)	25.5	14.9	2.76	4.66	8.46	-5.04	4.66	-0.74	-0.54	-5.04	6.46	11.7	-1.24	-2.34	6.36	7.16	20.8	3.96	9.86	-5.04
COC(=O)c1ccc2c(c1)NC(=O)/C2=C(\Nc1ccc(N(C)C(=O)CN2CCN(C)CC2)cc1)c1ccccc1 [Nintedanib] (top concentration 10000 nM)	-4.56	0.84	14.3	8.74	4.44	2.14	5.14	3.34	-4.86	14.1	-6.36	-2.26	-1.96	-2.36	-1.46	5.94	3.64	-5.16	9.44	0.84
O=C(O)C(=O)O.[NH-][C@@H]1CCCC[C@H]1[NH-].[Pt+2] [Oxaliplatin] (top concentration 100000 nM)	10.6	16	3.42	15.6	14.9	8.32	12.9	15.3	5.52	14.2	12.8	17.1	12.4	6.12	14.1	0.62	11.6	10	16.6	-0.08
